Results from ChEMBL document CHEMBL3784999, “Investigation of 4-amino-5-alkynylpyrimidine-2(1H)-ones as anti-mycobacterial agents” (Bioorg Med Chem, 2016).
The source made the active and inactive calls.

Key:
[1] = system: Mycobacterium tuberculosis; assay: Antimycobacterial activity against Mycobacterium tuberculosis H37Ra infected in BALB/c mouse assessed as reduction of bacterial load in lung at 12.5 mg/kg, po administered for 2 weeks started on day 4 post bacterial infection measured 3 days post last dose co-treated with 1 mg/kg, po isoniazid; assay type: functional
Mus musculus [2] = assay: Toxicity in BALB/c mouse infected with Mycobacterium tuberculosis H37Ra assessed as behavioral changes at 6.25 to 25 mg/kg, po administered for 2 weeks started on day 4 post bacterial infection; assay type: organism-based; conditions: in vivo, 336 h
Mus musculus [3] = assay: Toxicity in BALB/c mouse infected with Mycobacterium tuberculosis H37Ra assessed as change in cholesterol level in serum at 6.25 to 25 mg/kg, po administered for 2 weeks started on day 4 post bacterial infection in presence of isoniazid; assay type: organism-based; conditions: in vivo, 336 h
Mus musculus [4] = assay: Toxicity in BALB/c mouse infected with Mycobacterium tuberculosis H37Ra at 6.25 to 25 mg/kg, po administered for 2 weeks started on day 4 post bacterial infection by necroscopy; assay type: organism-based; conditions: in vivo, 336 h
[5] = system: Mycobacterium tuberculosis; assay: Ratio MIC90 for Mycobacterium tuberculosis H37Ra in presence of isoniazid to MIC90 for Mycobacterium tuberculosis H37Ra in absence of isoniazid; assay type: functional
Mus musculus [6] = assay: Toxicity in BALB/c mouse infected with Mycobacterium tuberculosis H37Ra assessed as change in cholesterol level in serum at 6.25 to 25 mg/kg, po administered for 2 weeks started on day 4 post bacterial infection; assay type: organism-based; conditions: in vivo, 336 h
Mus musculus [7] = assay: Toxicity in BALB/c mouse infected with Mycobacterium tuberculosis H37Ra assessed as change in phosphate level in serum at 6.25 to 25 mg/kg, po administered for 2 weeks started on day 4 post bacterial infection; assay type: organism-based; conditions: in vivo, 336 h
[8] = system: Mycobacterium tuberculosis; assay: Antimycobacterial activity against Mycobacterium tuberculosis H37Ra infected in BALB/c mouse assessed as reduction of bacterial load in lung at 25 mg/kg, po administered for 2 weeks started on day 4 post bacterial infection measured 3 days post last dose; assay type: functional
Mus musculus [9] = assay: Toxicity in BALB/c mouse infected with Mycobacterium tuberculosis H37Ra assessed as change in urea level in serum at 6.25 to 25 mg/kg, po administered for 2 weeks started on day 4 post bacterial infection; assay type: organism-based; conditions: in vivo, 336 h
Mus musculus [10] = assay: Toxicity in BALB/c mouse infected with Mycobacterium tuberculosis H37Ra assessed as change in calcium level in serum at 6.25 to 25 mg/kg, po administered for 2 weeks started on day 4 post bacterial infection in presence of isoniazid; assay type: organism-based; conditions: in vivo, 336 h
Mus musculus [11] = assay: Toxicity in BALB/c mouse infected with Mycobacterium tuberculosis H37Ra assessed as change in alkaline phosphatase level in serum at 6.25 to 25 mg/kg, po administered for 2 weeks started on day 4 post bacterial infection; assay type: organism-based; conditions: in vivo, 336 h
[12] = system: Mycobacterium tuberculosis; assay: Antimycobacterial activity against Mycobacterium tuberculosis H37Ra assessed as inhibition of mycobacterial replication at 6.25 ug/ml after 6 days by microplate Alamar blue assay in presence of isoniazid; assay type: functional; conditions: 144 h
[13] = Cytotoxicity against African green monkey Vero cells assessed as cell viability after 3 days by XTT assay; assay type: cell-based; conditions: chlorocebus sabaeus
Mus musculus [14] = assay: Toxicity in BALB/c mouse infected with Mycobacterium tuberculosis H37Ra assessed as change in phosphate level in serum at 6.25 to 25 mg/kg, po administered for 2 weeks started on day 4 post bacterial infection in presence of isoniazid; assay type: organism-based; conditions: in vivo, 336 h
Mus musculus [15] = assay: Toxicity in BALB/c mouse infected with Mycobacterium tuberculosis H37Ra assessed as behavioral changes at 6.25 to 25 mg/kg, po administered for 2 weeks started on day 4 post bacterial infection in presence of isoniazid; assay type: organism-based; conditions: in vivo, 336 h
[16] = system: Mycobacterium tuberculosis; assay: Antimycobacterial activity against Mycobacterium tuberculosis H37Ra infected in BALB/c mouse assessed as reduction of bacterial load in spleen at 25 mg/kg, po administered for 2 weeks started on day 4 post bacterial infection measured 3 days post last dose; assay type: functional
[17] = system: Mycobacterium tuberculosis; assay: Antimycobacterial activity against Mycobacterium tuberculosis H37Ra assessed as inhibition of mycobacterial replication after 6 days by microplate Alamar blue assay; assay type: functional; conditions: 144 h
Mus musculus [18] = assay: Toxicity in BALB/c mouse infected with Mycobacterium tuberculosis H37Ra assessed as change in urea level in serum at 6.25 to 25 mg/kg, po administered for 2 weeks started on day 4 post bacterial infection in presence of isoniazid; assay type: organism-based; conditions: in vivo, 336 h
Mus musculus [19] = assay: Toxicity in BALB/c mouse infected with Mycobacterium tuberculosis H37Ra assessed as weight loss at 6.25 to 25 mg/kg, po administered for 2 weeks started on day 4 post bacterial infection in presence of isoniazid; assay type: organism-based; conditions: in vivo, 336 h
Mus musculus [20] = assay: Toxicity in BALB/c mouse infected with Mycobacterium tuberculosis H37Ra assessed as weight loss at 6.25 to 25 mg/kg, po administered for 2 weeks started on day 4 post bacterial infection; assay type: organism-based; conditions: in vivo, 336 h
Mus musculus [21] = assay: Toxicity in BALB/c mouse infected with Mycobacterium tuberculosis H37Ra assessed as change in amylase level in serum at 6.25 to 25 mg/kg, po administered for 2 weeks started on day 4 post bacterial infection; assay type: organism-based; conditions: in vivo, 336 h
Mus musculus [22] = assay: Toxicity in BALB/c mouse infected with Mycobacterium tuberculosis H37Ra assessed as gross necroscopy changes at 6.25 to 25 mg/kg, po administered for 2 weeks started on day 4 post bacterial infection; assay type: organism-based; conditions: in vivo, 336 h
[23] = system: Mycobacterium tuberculosis; assay: Antimycobacterial activity against Mycobacterium tuberculosis H37Ra infected in BALB/c mouse assessed as reduction of bacterial load in spleen at 12.5 mg/kg, po administered for 2 weeks started on day 4 post bacterial infection measured 3 days post last dose co-treated with 1 mg/kg, po isoniazid; assay type: functional
Mus musculus [24] = assay: Toxicity in BALB/c mouse infected with Mycobacterium tuberculosis H37Ra assessed as change in amylase level in serum at 6.25 to 25 mg/kg, po administered for 2 weeks started on day 4 post bacterial infection in presence of isoniazid; assay type: organism-based; conditions: in vivo, 336 h
Mus musculus [25] = assay: Toxicity in BALB/c mouse infected with Mycobacterium tuberculosis H37Ra at 6.25 to 25 mg/kg, po administered for 2 weeks started on day 4 post bacterial infection by necroscopy in presence of isoniazid; assay type: organism-based; conditions: in vivo, 336 h
Mus musculus [26] = assay: Toxicity in BALB/c mouse infected with Mycobacterium tuberculosis H37Ra assessed as change in calcium level in serum at 6.25 to 25 mg/kg, po administered for 2 weeks started on day 4 post bacterial infection; assay type: organism-based; conditions: in vivo, 336 h
[27] = system: Mycobacterium tuberculosis; assay: Antimycobacterial activity against Mycobacterium tuberculosis H37Ra infected in BALB/c mouse assessed as reduction of bacterial load in liver at 25 mg/kg, po administered for 2 weeks started on day 4 post bacterial infection measured 3 days post last dose; assay type: functional
Mus musculus [28] = assay: Toxicity in BALB/c mouse infected with Mycobacterium tuberculosis H37Ra assessed as change in creatinine level in serum at 6.25 to 25 mg/kg, po administered for 2 weeks started on day 4 post bacterial infection; assay type: organism-based; conditions: in vivo, 336 h
[29] = system: Mycobacterium tuberculosis; assay: Antimycobacterial activity against Mycobacterium tuberculosis H37Ra assessed as inhibition of mycobacterial replication at 6.25 ug/ml after 6 days by microplate Alamar blue assay in absence of isoniazid; assay type: functional, organism-based
Mus musculus [30] = assay: Toxicity in BALB/c mouse infected with Mycobacterium tuberculosis H37Ra assessed as change in creatinine level in serum at 6.25 to 25 mg/kg, po administered for 2 weeks started on day 4 post bacterial infection in presence of isoniazid; assay type: organism-based; conditions: in vivo, 336 h
Mus musculus [31] = assay: Toxicity in BALB/c mouse infected with Mycobacterium tuberculosis H37Ra assessed as change in alkaline phosphatase level in serum at 6.25 to 25 mg/kg, po administered for 2 weeks started on day 4 post bacterial infection in presence of isoniazid; assay type: organism-based; conditions: in vivo, 336 h
[32] = system: Mycobacterium tuberculosis; assay: Antimycobacterial activity against Mycobacterium tuberculosis H37Ra infected in BALB/c mouse assessed as reduction of bacterial load in spleen at 1 mg/kg, po administered for 2 weeks started on day 4 post bacterial infection measured 3 days post last dose; assay type: functional, organism-based
[33] = system: Mycobacterium tuberculosis; assay: Antimycobacterial activity against Mycobacterium tuberculosis H37Ra assessed as inhibition of mycobacterial replication at 0.05 ug/ml after 6 days by microplate Alamar blue assay in absence of isoniazid; assay type: functional; conditions: 144 h
[34] = system: Mycobacterium tuberculosis; assay: Antimycobacterial activity against Mycobacterium tuberculosis H37Ra infected in BALB/c mouse assessed as reduction of bacterial load in liver at 1 mg/kg, po administered for 2 weeks started on day 4 post bacterial infection measured 3 days post last dose; assay type: functional, organism-based
[35] = system: Mycobacterium tuberculosis; assay: Antimycobacterial activity against Mycobacterium tuberculosis H37Ra infected in BALB/c mouse assessed as reduction of bacterial load in lung at 1 mg/kg, po administered for 2 weeks started on day 4 post bacterial infection measured 3 days post last dose; assay type: functional, organism-based

Nc1nc(=O)[nH]cc1C#Cc1ccccc1
100%: inhibition at 6.25 µg/mL [12]
> 200 µg/mL: CC50 at 72 h [13]
70%: inhibition (INH) [1]
25 µg/mL: MIC50 [17]
inactive: inhibition [8] | inhibition [16] | inhibition [27] | inhibition [29]
0.25: fractional inhibitory concentration index (FICI) [5]
45%: inhibition (INH) [23]
Non-toxic: Activity (Mus musculus [2]) | Activity (Mus musculus [3]) | Activity (Mus musculus [4]) | Activity (Mus musculus [6]) | Activity (Mus musculus [7]) | Activity (Mus musculus [9]) | Activity (Mus musculus [10]) | Activity (Mus musculus [11]) | Activity (Mus musculus [14]) | Activity (Mus musculus [15]) | Activity (Mus musculus [18]) | Activity (Mus musculus [19]) | Activity (Mus musculus [20]) | Activity (Mus musculus [21]) | Activity (Mus musculus [22]) | Activity (Mus musculus [24]) | Activity (Mus musculus [25]) | Activity (Mus musculus [26]) | Activity (Mus musculus [28]) | Activity (Mus musculus [30]) | Activity (Mus musculus [31])

CCCCCCCCCCCCC#Cc1c[nH]c(=O)nc1N
> 200 µg/mL: CC50 at 72 h [13]

NNC(=O)c1ccncc1 [ISONIAZID]
inactive: Activity [32] | Activity [34] | Activity [35]
10%: inhibition at 0.05 µg/mL [33]

CCCCCCCCCCCC#Cc1c[nH]c(=O)nc1N
> 200 µg/mL: CC50 at 72 h [13]
